Reference: the supplement of paper PMC11061612

Assays:
[1] = system: CHSA8926 (Chondrosarcoma); experiment: Bliss excess, mean over the matrix (fraction); higher = more synergy
Outline: (§1)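 After 24 hours at 37°C and 5% CO2 in 1536-well plates, cells in DMEM/F12 or RPMI plus 10% FBS received two-drug dose matrices for 72 hours. Viability came from CellTiter-Glo 2.0 luminescence and was scaled as inhibition, anchored at 0 by vehicle wells and at 1 by blank wells. Combination Emax is taken as the second-highest inhibition in the matrix, and Bliss excess as the observed combination effect less EA + EB − EA·EB, with EA and EB the single-agent effects.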

[2] = system: ESO51 (Esophageal Adenocarcinoma); experiment: as above
Outline: as §1

G-361 (Melanoma) = experiment: as above
Outline: as §1

[3] = system: H9 (T-Cell Non-Hodgkin's Lymphoma); experiment: as above
Outline: as §1

[4] = system: HCC1187 (Breast Carcinoma); experiment: as above
Outline: as §1

[5] = system: IM-95 (Gastric Carcinoma); experiment: as above
Outline: as §1

[6] = system: JHH-4 (Hepatocellular Carcinoma); experiment: as above
Outline: as §1

[7] = system: KP-3 (Pancreatic Carcinoma); experiment: as above
Outline: as §1

[8] = system: KY821 (Acute Myeloid Leukemia); experiment: as above
Outline: as §1

[9] = system: MN-60 (B-Lymphoblastic Leukemia); experiment: as above
Outline: as §1

[10] = system: MOLM-13 (Acute Myeloid Leukemia); experiment: as above
Outline: as §1

[11] = system: NCCIT (Other Solid Carcinomas); experiment: as above
Outline: as §1

NCI-H2731 (Mesothelioma) = experiment: as above
Outline: as §1

[12] = system: NCI-H3122 (Lung Adenocarcinoma); experiment: as above
Outline: as §1

[13] = system: NCI-H526 (Small Cell Lung Carcinoma); experiment: as above
Outline: as §1

[14] = system: PC-3 (Prostate Carcinoma); experiment: as above
Outline: as §1

[15] = system: SU-DHL-5 (B-Cell Non-Hodgkin's Lymphoma); experiment: as above
Outline: as §1

[16] = system: SUP-B15 (B-Lymphoblastic Leukemia); experiment: as above
Outline: as §1

[17] = system: T-T (Esophageal Squamous Cell Carcinoma); experiment: as above
Outline: as §1

[18] = system: 8505C (Thyroid Gland Carcinoma); experiment: combination Emax (second highest fraction inhibited in the dose matrix, 72 h); higher = more inhibition; extreme values may be limits of the assay
Outline: as §1
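Throughout, for Bliss excess, mean over the matrix: after 72 h of two-drug dosing.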

Row | Compound | Bliss excess [1] | Bliss excess [2] | Bliss excess (G-361 (Melanoma)) | Bliss excess [3] | Bliss excess [4] | Bliss excess [5] | Bliss excess [6] | Bliss excess [7] | Bliss excess [8] | Bliss excess [9] | Bliss excess [10] | Bliss excess [11] | Bliss excess (NCI-H2731 (Mesothelioma)) | Bliss excess [12] | Bliss excess [13] | Bliss excess [14] | Bliss excess [15] | Bliss excess [16] | Bliss excess [17] | combination Emax [18]
1 | COc1nnc2ccc(N3CCC(c4ccc(OCCN5CCN(C)C(=O)[C@H]5C)cc4)CC3)nn12 [AZD5153] + CCN(CCO)CCCOc1ccc2c(Nc3cc(CC(=O)Nc4cccc(F)c4)[nH]n3)ncnc2c1 [AZD2811] (first compound max 1 µM, 7x7, partner max 1 µM) | -0.035 | -0.0152 | -0.0432 | -0.0163 | -0.0934 | -0.0664 | -0.0334 | -0.0359 | 0.0574 | -0.0224 | 0.0176 | -0.0288 | -0.0294 | -0.0217 | -0.0332 | -0.0257 | -0.0638 | -0.028 | -0.0284 | 0.5
2 | COc1nnc2ccc(N3CCC(c4ccc(OCCN5CCN(C)C(=O)[C@H]5C)cc4)CC3)nn12 [AZD5153] + C[C@@H]1COCCN1C2=NC(=NC(=C2)C3(CC3)[S@](=N)(=O)C)C4=C5C=CNC5=NC=C4 [AZD6738] (first compound max 1 µM, 7x7, partner max 10 µM) | 0.0437 | -0.0476 | -0.0191 | -0.0108 | 0.0265 | 0.0268 | 0.134 | 0.0527 | -0.0196 | -0.0638 | -0.0068 | -0.0702 | 0.0266 | -0.0382 | -0.044 | 0.0034 | 0.0107 | -0.012 | -0.0179 | 0.807
3 | COc1nnc2ccc(N3CCC(c4ccc(OCCN5CCN(C)C(=O)[C@H]5C)cc4)CC3)nn12 [AZD5153] + Cc1c2c(nn1C)CSCc1cc(n(C)n1)CSc1cc(c3ccccc3c1)OCCCc1c(C(=O)O)n(C)c3c-2c(Cl)ccc13 [AZD5991] (first compound max 1 µM, 7x7, partner max 1 µM) | -0.0166 | -0.0093 | 0.0501 | -0.0056 | 0.0079 | -0.0477 | 0.0096 | -0.0446 | 0.0104 | -0.0765 | -0.0238 | -0.0196 | -0.0327 | -0.0279 | 0.03 | -0.054 | -0.0264 | 0.0356 | -0.0157 | 0.475
4 | COc1nnc2ccc(N3CCC(c4ccc(OCCN5CCN(C)C(=O)[C@H]5C)cc4)CC3)nn12 [AZD5153] + Cn1cnc2c(F)c(Nc3ccc(Br)cc3Cl)c(C(=O)NOCCO)cc21 [Selumetinib] (first compound max 1 µM, 7x7, partner max 10 µM) | -0.0599 | -0.0408 | -0.107 | 0.0074 | -0.0067 | 0.0649 | 0.0336 | -0.0122 | 0.0027 | -0.0593 | 0.0238 | -0.0845 | -0.0445 | -0.0818 | -0.0183 | -0.0598 | 0.0756 | 0.101 | 0.0702 | 0.593
5 | Cc1c2c(nn1C)CSCc1cc(n(C)n1)CSc1cc(c3ccccc3c1)OCCCc1c(C(=O)O)n(C)c3c-2c(Cl)ccc13 [AZD5991] + C1CN(CCC1(C(=O)N[C@@H](CCO)C2=CC=C(C=C2)Cl)N)C3=NC=NC4=C3C=CN4 [Capivasertib] (first compound max 1 µM, 7x7, partner max 3 µM) | 0.0131 | -0.0239 | -0.0055 | -0.0514 | -0.0023 | -0.0384 | 0.0018 | -0.0102 | -0.0471 | 0.0165 | -0.002 | 0.076 | -0.0722 | 0.0144 | 0.0139 | -0.0404 | 0.0095 | -0.0025 | -0.0068 | 0.158
6 | Cc1c2c(nn1C)CSCc1cc(n(C)n1)CSc1cc(c3ccccc3c1)OCCCc1c(C(=O)O)n(C)c3c-2c(Cl)ccc13 [AZD5991] + C=CCn1c(=O)c2cnc(Nc3ccc(N4CCN(C)CC4)cc3)nc2n1-c1cccc(C(C)(C)O)n1 [AZD1775] (first compound max 1 µM, partner max 1 µM) | -0.0155 | 0.011 | 0.0513 | -0.0337 | -0.0342 | 0.0201 | 0.0308 | 0.0154 | -0.0329 | -0.0077 | -0.0021 | -0.0113 | -0.0336 | -0.058 | -0.0063 | 0.0111 | 0.0028 | 0.0171 | 0.0282 | 0.27
